Assay results from patent US7090780B2, “Bactericide for use in water treatment, method for water treatment and apparatus for water treatment” (Toray Industries, Inc., priority 2001, dated 2006).

Settings: 50 ppm of sulfuric acid added to pressure-sterilized physiological salt solution (salt concentration 0.9 wt %)

O=S(=O)(O)O [sulfuric acid]
pH of the liquid: 3.2
